From publication PMC4704819, “Honey Bee Allatostatins Target Galanin/Somatostatin-Like Receptors and Modulate Learning: A Conserved Function?” (PLoS ONE, 2016) come the findings set out here.

*1 amine or outer side, *2 acyl side, *3 side chain or, on linkers, in order; H or OH if unused. Where a SMILES comes first, the peptide text is derived from it. Where no end group is shown, it is not given here. Side-chain parts run from the residue outwards. [ ]: non-standard residue; d: D form. The star is where a group is joined. Ethylenediamine = C(CN[*:2])N[*:1]; Hyp = O=C(O)[C@@H]1C[C@@H](O)CN1; Phg = N[C@H](C(=O)O)c1ccccc1; CO = O=C([*:1])[*:2]; Bn = c1ccc(C*)cc1

The target in experiment [1] is T1, Apime-ASTA-R (Apis mellifera, UniProt A0A7M7ILT1).
T1 sequence (A0A7M7ILT1 1-361): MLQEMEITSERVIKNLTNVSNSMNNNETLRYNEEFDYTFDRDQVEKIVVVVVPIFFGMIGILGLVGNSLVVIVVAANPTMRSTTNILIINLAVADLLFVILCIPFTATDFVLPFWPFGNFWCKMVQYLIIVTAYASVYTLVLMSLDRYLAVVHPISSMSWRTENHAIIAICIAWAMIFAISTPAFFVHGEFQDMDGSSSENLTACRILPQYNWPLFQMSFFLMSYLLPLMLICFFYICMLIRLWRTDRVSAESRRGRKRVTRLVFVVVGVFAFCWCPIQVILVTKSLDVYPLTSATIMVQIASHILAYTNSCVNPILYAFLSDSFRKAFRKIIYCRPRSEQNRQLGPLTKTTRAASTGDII
The experiment is described as follows: Intracellular cAMP reporter assay, HEK293 cells expressing Apime-ASTA-R. Type of experiment: cell-based. As to the method: (§1) For intracellular cAMP measurements, cells were bathed in trypsin EDTA and collected, then suspended in fresh DMEM. Transfections with pRK5-ApimeAstC-R, pRK5-ApimeAstA-R or empty pRK5 vector were carried out in 15 ml Falcon tubes. Transfection medium for HEK293 cells was prepared using the Lipofectamine LTX kit (Invitrogen) with 2.5 ml Opti-MEM® (Gibco), 12.5 μl Plus™ Reagent and 4 μg of ApimeASTC-R (or ApimeASTA-R, or empty) expression construct, and 2 μg of CRE(6x)-Luc plasmid. The luciferase ORF, downstream of six tandem repeats of a cyclic AMP responsive element (CRE), in front of a minimum collate promoter, was used as a reporter gene (this reporter plasmid has been used by others)
We followed a previousy published protocol: HEK293 cells in Dulbecco's Modified Eagles Medium nutrient mixture F12-Ham (DMEM/F12, Sigma–Aldrich) supplemented with 10% heat-inactivated fetal bovine serum (Gibco), 100 IU/ml penicillin, 100 μg/ml streptomycin (Gibco) were maintained in an incubator at 37°C with constant supply of 5% CO2, until they reached 60–80% confluence. Cells were then bathed in trypsin EDTA (Gibco) until rounded. The flask was then tapped to loosen the cells, which were subsequently washed off with 5 ml DMEM/F12. […]
Prior to measuring cAMP, the cell medium was removed by carefully inverting the 96-well plate on filter paper and quickly replaced with 100 μl of DMEM/F12 without phenol red (Invitrogen), but containing 200 μM 3-isobutyl-1-methylxanthine (IBMX, Sigma–Aldrich) to prevent cAMP breakdown, as well as drugs to be tested. […] The 96-well plate was then placed in the dark for 15 min before light emission resulting from luciferase enzymatic activity was recorded. Measurements lasting 0.2 s/well were taken every 55 s for 10 cycles using a FLUOstar Omega microplate reader (BMG Labtech). Results were analyzed by means of the Omega software packages and further processed by Excel and GraphPad Prism softwares. […]
For orientation: A reporter such as luciferase makes a cellular process visible.

Experiment [2] relates to mock-transfected HEK293 cells. The experiment is described as follows: Intracellular cAMP reporter assay, mock-transfected HEK293 cells (empty vector). Format: cell-based, human. The method, then:
as §1
(§2) We followed a previousy published protocol: HEK293 cells in Dulbecco's Modified Eagles Medium nutrient mixture F12-Ham (DMEM/F12, Sigma–Aldrich) supplemented with 10% heat-inactivated fetal bovine serum (Gibco), 100 IU/ml penicillin, 100 μg/ml streptomycin (Gibco) were maintained in an incubator at 37°C with constant supply of 5% CO2, until they reached 60–80% confluence. Cells were then bathed in trypsin EDTA (Gibco) until rounded. The flask was then tapped to loosen the cells, which were subsequently washed off with 5 ml DMEM/F12. The cells were gently centrifuged at 800 rpm for 5 minutes and carefully suspended in fresh DMEM, which was divided in two for transfection with receptor constructs or empty vectors. After 5 min at room temperature, 30 μl LTX was added. After an incubation period of 30 min at room temperature, the DNA/LTX mix was added to the cells. The cells were then aliquoted (100 μl per well) into a clear bottom 96-well plate (Greiner bio-one #655090) and incubated overnight (37°C, 5% CO2).
(§3) Prior to measuring cAMP, the cell medium was removed by carefully inverting the 96-well plate on filter paper and quickly replaced with 100 μl of DMEM/F12 without phenol red (Invitrogen), but containing 200 μM 3-isobutyl-1-methylxanthine (IBMX, Sigma–Aldrich) to prevent cAMP breakdown, as well as drugs to be tested. In each experiment, some wells were used to measure basal levels of cAMP in the cells (negative control), while others were used to measure cAMP levels in cells exposed to 10 μM forskolin analogue (NKH-477, Sigma Aldrich, positive control). […] All cells were incubated at 37°C and 5% CO2 for 3–4 h to allow transcription of the reporter gene before 100 μl of freshly reconstituted Steadylite Plus™ substrate (PerkinElmer) was added to each well. The 96-well plate was then placed in the dark for 15 min before light emission resulting from luciferase enzymatic activity was recorded. Measurements lasting 0.2 s/well were taken every 55 s for 10 cycles using a FLUOstar Omega microplate reader (BMG Labtech). Results were analyzed by means of the Omega software packages and further processed by Excel and GraphPad Prism softwares. In order to facilitate comparisons across experiments, bioluminescence levels are expressed relative to those in mock-transfected cells (transfected with the vector devoid of the receptor sequence) untreated with NKH-477, which were arbitrarily set at 100.
(§4) To test this prediction, we expressed the two receptors separately in HEK293 cells together with the luciferase reporter gene, downstream of the cAMP response element, CRE, but without exogenous G proteins.

In experiment [3] the target is T2, Apime-ASTC-R (Apis mellifera, UniProt A0A7M7GNE5).
T2 sequence (A0A7M7GNE5 1-423): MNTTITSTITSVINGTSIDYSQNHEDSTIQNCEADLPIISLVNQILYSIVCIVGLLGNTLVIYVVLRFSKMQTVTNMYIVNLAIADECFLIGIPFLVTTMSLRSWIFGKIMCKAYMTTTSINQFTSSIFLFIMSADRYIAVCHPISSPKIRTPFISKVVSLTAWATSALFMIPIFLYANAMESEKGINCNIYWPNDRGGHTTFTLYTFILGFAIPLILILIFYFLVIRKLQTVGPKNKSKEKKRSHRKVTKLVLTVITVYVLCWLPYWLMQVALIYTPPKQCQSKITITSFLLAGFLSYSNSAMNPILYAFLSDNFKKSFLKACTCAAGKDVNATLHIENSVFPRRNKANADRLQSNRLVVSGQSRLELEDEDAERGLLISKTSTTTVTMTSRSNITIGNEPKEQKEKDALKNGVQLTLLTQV
The experiment is described as follows: Intracellular cAMP reporter assay, HEK293 cells expressing Apime-ASTC-R. Type of experiment: cell-based. Particulars: Fig 5B, 2 transfections in duplicates or triplicates. As to the method: as §1, §2, §3, §4

For experiment [4], the target named is T2, Apime-ASTC-R. The experiment is described as follows: Intracellular calcium measurement, HEK293 cells expressing Apime-ASTC-R with Gαqi9 chimeric G protein. Type of experiment: cell-based. Particulars: concentrations up to 0.1mM; data not shown. The method, then:
(§5) This vector contains an ATG initiation codon in phase with a mammalian signal peptide sequence of metabotropic glutamate receptor 5 to address receptor protein to the cell membrane, with a hemagglutinin sequence (TAG HA), and MluI and HindIII restriction sites used for cloning. The coding regions of the genes of interest were PCR amplified from cDNA template. After extraction from whole brains, 1 μg of total RNA was reverse-transcribed with random primers. […] PCR reactions included: 30s at 98°C, then 30 cycles of 10s at 98°C, 30s at 60°C, 1 min at 72°C and finally, 5 minutes at 72°C. Cloning required several amplification and digestion steps to insert the full cDNA sequences in the vector.
In all cases, 2 μg of plasmid DNA encoding the Gαqi9 chimeric G protein was included to enable artificial coupling of the receptors to phospholipase C. […]
Cells were washed with freshly prepared 20 mM Hepes, 1 mM MgSO4, 3.3 mM Na2CO3, 1.3 mM CaCl2, 0.1% BSA, 2.5 mM probenecid in 1X Hank's balanced salt solution (Gibco #14185), pH7.4 buffer and loaded with 1 μM Ca^2+-sensitive fluorescent dye Fluo-4 AM (Invitrogen # F14202) for 1 h at 37°C. […] Fluorescence signals (excitation 485 nm, emission 525 nm) were measured by using the fluorescence microplate reader Flexstation (Molecular Devices) at sampling intervals of 1.5 s for 60 s. […]

For experiment [5], the target named is T1, Apime-ASTA-R. The experiment is described as follows: Intracellular calcium measurement, HEK293 cells expressing Apime-ASTA-R with Gαqi9 chimeric G protein. Type of experiment: cell-based. The method, then:
as §5
In all cases, 2 μg of plasmid DNA encoding the Gαqi9 chimeric G protein was included to enable artificial coupling of the receptors to phospholipase C. Electroporation (250 V, 800 μF, Biorad GenePulser X-cell) was performed in a total volume of 300 μl of electroporation buffer (50 mM K2HPO4, 20 mM CH3COOK, 20 mM KOH, 26.5 mM MgSO4, pH 7.4). After electroporation, cells were resuspended in 10 ml of culture medium and split (100 μl/well) into polyornithine-coated (Sigma #P3655), black-walled, clear bottom 96-well plates (Greiner bio-one #655090) and grown for a further 48 h prior to analyzing receptor properties. All products used for cell culture were purchased from Invitrogen Life Technologies.
Cells were washed with freshly prepared 20 mM Hepes, 1 mM MgSO4, 3.3 mM Na2CO3, 1.3 mM CaCl2, 0.1% BSA, 2.5 mM probenecid in 1X Hank's balanced salt solution (Gibco #14185), pH7.4 buffer and loaded with 1 μM Ca^2+-sensitive fluorescent dye Fluo-4 AM (Invitrogen # F14202) for 1 h at 37°C. Cells were washed once and incubated with 50 μl of buffer. A plate was prepared with the various concentrations of peptides to be tested, and 50 μl of 2X concentrated-drug solution was added in each well after 20 s of recording. Fluorescence signals (excitation 485 nm, emission 525 nm) were measured by using the fluorescence microplate reader Flexstation (Molecular Devices) at sampling intervals of 1.5 s for 60 s. All represented data correspond to means ± standard deviation (SD) from experiments performed in triplicate.
This method allows detecting ligand-induced activation of the receptor by measuring the release of intracellular calcium.

For the compound `C=C[C@@]1(C)CC(=O)[C@]2(O)[C@@]3(C)[C@@H](O)CCC(C)(C)[C@@H]3[C@H](OC(=O)CCN(C)C)[C@H](OC(C)=O)[C@@]2(C)O1.Cl` [NKH-477, reference compound], the “ability to increase bioluminescence versus mock-transfected cells, in words” value on Apime-ASTA-R [1] (Fig 5B, 2 transfections in duplicates or triplicates) is recorded as “reduced ability to increase bioluminescence levels”; on Apime-ASTC-R [3], “reduced ability to increase bioluminescence levels”. Besides, the “increase in cAMP levels (bioluminescence)” value is recorded as 1.59 fold at Apime-ASTA-R [1] (same concentrations as in mock cells (10 nM to 10 μM), CRE-luciferase, IBMX, Fig 5B, 2 transfections in duplicates or triplicates) and 1.24 fold at Apime-ASTC-R [3] (same concentrations as in mock cells (10 nM to 10 μM), CRE-luciferase, IBMX). In experiment [2] (10 nM to 10 μM), the “increase in bioluminescence (cAMP), in words” value is “increased bioluminescence in a dose-dependent manner”. The “increase in bioluminescence (cAMP) compared to baseline” value in experiment [2] (10 μM, CRE-luciferase, 200 μM IBMX, Fig 5B, 2 transfections in duplicates or triplicates) stood at 2.5 fold.

For `NCCCC[C@@H]1NC(=O)[C@@H](Cc2c[nH]c3ccccc23)NC(=O)[C@H](c2ccccc2)NC(=O)[C@@H]2C[C@@H](OC(=O)NCCN)CN2C(=O)[C@H](Cc2ccccc2)NC(=O)[C@H](Cc2ccc(OCc3ccccc3)cc2)NC1=O` [SOM230, reference compound] (cyclo([Hyp]([CO-Ethylenediamine])[Phg][dW]KY(Bn)F); ring closure inferred), the calcium release result at Apime-ASTC-R [4] was “No calcium release was detected”; at Apime-ASTA-R [5] (concentrations up to 0.1mM, data not shown) it was “No calcium release was detected”.

Take GRQPYSFGL-NH2 [Apime-ASTA]: the EC50 (as a rule, the concentration giving half of the maximal effect) on Apime-ASTA-R [5] (HEK293, Gαqi9, Fluo-4 AM, Flexstation (ex 485 nm, em 525 nm), pH 7.4, experiments in triplicate, read-out: EC50, calcium release) came to 1.99 nM; at Apime-ASTA-R [1] (CRE-luciferase, 200 μM IBMX, no exogenous G protein, 37°C 3–4 h, normalized to mock-transfected cells, 3 independent transfections in triplicate, Fig 5C, read-out: mean EC50, increase in cAMP levels) it was 103 nM.
